Results: patent US8871772B2, “Therapeutic methods and compounds” (Ampio Pharmaceuticals, Inc., priority 2008, dated 2014)

What was measured:
Akt = Akt phosphorylation in WM-266-4 melanoma cells, CASE ELISA (S473); format: cell-based; settings: IGF-1 stimulated; for inhibition at 50 µM: WM 266-4, WM-266-4, 50 μM
Experimental: Assays were performed to determine the effect of Cpd. 5 (synthesis described in Example 1) on phosphorylation of Akt in WM-266-4, a metastatic melanoma cell line obtained from ATCC. The WM-266-4 cells were grown in 25 cm^2 flasks using IMDM medium (obtained from Lonza) supplemented with 10% fetal bovine serum (FBS, HyClone) and 1% penicillin/streptomycin solution (Lonza). Cells were removed from the flasks using trypsin/EDTA (Lonza) and counted using trypan blue to establish cell counts. Cells in the above supplemented IMDM medium were added to the wells of a 96-well plate (10,000 cells/well), and the plates were incubated at 37° C., 5% CO2, for 24 hours. After 24 hours, the medium was removed and replaced with medium not containing any serum (serum-free IMDM), and the plates were incubated at 37° C., 5% CO2, for an additional 24 hours.
After this incubation, the test compounds were added to the plates as follows. A 20 mM stock solution of Cpd. 5 was prepared in DMSO and frozen at −80° C. Aliquots of the stock solution were removed and dilutions were made in serum-free IMDM medium. Final concentrations of Cpd. 5 were 10 μM and 50 μM. Controls containing equivalent amounts of DMSO as the two concentrations of Cpd. 5 (0.05% and 0.25%) were mixed for comparative purposes. The other control was the PI3 kinase inhibitor, LY294002 (obtained from Sigma), final concentration of 50 μM. 100 μl of each test compound solution were then added to 96 well culture plates in duplicate, and the plates were placed back into the incubator and incubated at 37° C., 5% CO2, for 1 hour.
Following this incubation, 100 μl of serum-free IMDM containing either 0 or 400 ng/ml IGF-1 (obtained from Sigma), an Akt phosphorylation promoter, were added, and the plates incubated at 37° C., 5% CO2, for 1 more hour. At the end of this time, the cells were fixed immediately with 4% formaldehyde, refrigerated, and the extent of phosphorylation of Akt determined using the Akt Cellular Activation of Signaling ELISA (CASE™ Kit for AKT S473; SABiosciences, Frederick, Md.) following the manufacturer's protocols. The CASE™ Kit for AKT S473 quantifies the amount of activated (phosphorylated) Akt protein relative to total Akt protein. For further details of the CASE ELISA assay, see Example 6.
The results were calculated as follows. The treatment groups containing IGF-I/DMSO were subtracted from their respective IGF-1/DMSO only groups (positive control). This value was divided by the difference between the respective DMSO only group (negative control) and the respective positive control. This value represents the percent inhibition of Akt phosphorylation attributable to the inhibitor alone since the contribution of DMSO is subtracted out.

[1] = system: U-118 metastatic astrocytoma cell line; test: Proliferation of U-118 cancer cells, Promega cell titer assay; format: cell-based
Experimental: Assays were performed to determine the effect of Cpd. 5 on proliferation of an additional cancer cell line. This cell line was the U-118 metastatic astrocytoma cell line. It was obtained from ATCC.
To perform the assays, a 50 mM stock solution of Cpd. 5 was prepared in DMSO and frozen at −80° C. […] Controls containing equivalent amounts of DMSO to the 300 μM solution were mixed for comparative purposes. 100 μl of the resulting solutions were then added to 96 well culture plates in triplicate and placed in a 37° C. incubator with 5% CO2 to warm.
Cells were removed from passage flasks using trypsin and ethylenediaminetetracetic acid (EDTA) and counted using trypan blue to establish cell counts/ml and viability. For all experiments, viability of cells was greater than 95%. Solutions of 4,000 cells/100 μl were prepared in the medium from above, and 100 μl of the solutions were added to each well of the plates. The plates were placed back in the incubator and incubated with the compounds for 96 hours.
Following incubation, cell proliferation was assayed by adding 20 μl Promega cell titer aqueous one reagent to each well. Promega cell titer reagent is a solution containing a tetrazolium dye that is reduced by living cells to a formazan dye, and this reduction is proportional to the number of living cells present in the well. The plates were incubated at 37° C. for an additional 4 hours to allow the colorimetric assay to develop, and the OD of each well was determined in a microplate reader using a 530 nm filter. The OD of wells containing cell titer reagent in culture medium with no cells was subtracted from the OD of all experimental readings.
The % decrease of the total cell titer signal was determined using the following formula. ((Diluent OD−Experimental OD)/Diluent OD))×100. Data are presented in Table 5 as mean % decrease of cell titer signal of three separate experiments, plus or minus standard deviation. In the mean % decrease column, a positive number means a decrease in cell titer signal, while a negative number means an increase in cell titer signal. The p values were calculated versus diluent controls.
The above experiment was repeated using the U-118 cells at 3000 cells/well.

| SMILES | inhibition at 10 µM (Akt; Homo sapiens, WM 266-4, WM-266-4, 10 μM) [%] | inhibition at 50 µM (Akt; Homo sapiens) [%] | MEAN % INHIBITION OF Akt PHOSPHORYLATION (Akt; WM-266-4, 50 μM, 50 µM) [%] | MEAN % DECREASE of cell titer signal ([1]; U-118, 3000 cells/well, 25 μM final) [%] | MEAN % DECREASE of cell titer signal ([1]; U-118, 3000 cells/well, 37.5 μM final) [%] | MEAN % DECREASE of cell titer signal ([1]; U-118, 3000 cells/well, 50 μM final) [%] | MEAN % DECREASE of cell titer signal ([1]; U-118, 3000 cells/well, 75 μM final) [%] | MEAN % DECREASE of cell titer signal ([1]; U-118, 3000 cells/well, 100 μM final) [%] | MEAN % DECREASE of cell titer signal ([1]; U-118, 3000 cells/well, 150 μM final) [%] | MEAN % DECREASE of cell titer signal ([1]; U-118, 4,000 cells/well, 25 μM final, 96 hours) [%] | MEAN % DECREASE of cell titer signal ([1]; U-118, 4,000 cells/well, 37.5 μM final, 96 hours) [%] | MEAN % DECREASE of cell titer signal ([1]; U-118, 4,000 cells/well, 50 μM final, 96 hours) [%] | MEAN % DECREASE of cell titer signal ([1]; U-118, 4,000 cells/well, 75 μM final, 96 hours) [%] | MEAN % DECREASE of cell titer signal ([1]; U-118, 4,000 cells/well, 100 μM final, 96 hours) [%] | MEAN % DECREASE of cell titer signal ([1]; U-118, 4,000 cells/well, 150 μM final, 96 hours) [%] | MEAN % DECREASE of cell titer signal ([1]; U-118, 3000 cells/well, 40 μM final) [%] | MEAN % DECREASE of cell titer signal ([1]; U-118, 4,000 cells/well, 20 μM final, 96 hours) [%] |
| --- | --- | --- | --- | --- | --- | --- | --- | --- | --- | --- | --- | --- | --- | --- | --- | --- | --- |
| COC(=O)C(c1ccc(-c2ccccc2)cc1)C1NC(=O)CNC1=O (stereo not drawn) [Cpd. 5, biphenyl-4-yl-(3,6-dioxo-piperazin-2-yl)-acetic acid methyl ester] | 102 | 47 | 55.9 | −25.28 | −25.28 | −15.63 | −3.05 | 20.51 | 59.70 | −50.62 | −46.50 | −7.82 | 4.11 | 25.93 | 65.84 |  |  |
| O=c1cc(N2CCOCC2)oc2c(-c3ccccc3)cccc12 [LY294002, reference compound] |  | 23.1 |  |  |  |  |  |  |  |  |  |  |  |  |  | 86.04 | 19.75 |
